Laboratory results reported in patent US6497872B1, “Neural transplantation using proliferated multipotent neural stem cells and their progeny” (NeuroSpheres Holdings Ltd., priority 1991, dated 2002).

Columns and labels:
[1] = test system: Primary striatal cells; test: Striatum-derived neurosphere proliferation in response to proliferative and regulatory factors (Example 43, Paradigm 1); assay type: cell-based, mouse
Protocol: Paradigm 1: Primary striatal cells prepared as outlined in Example 1 were suspended in Complete Medium, without growth factors, plated in 96 well plates (Nunclon) and incubated as described in Example 4. Following a one hour incubation period, a specific proliferative factor, or a combination of proliferative factors including EGF, or bFGF (recombinant human bFGF: R & D Systems), or a combination of EGF and bFGF, or EGF plus FGF plus heparan sulfate (Sigma), or bFGF plus heparan sulfate made up in Complete Medium at a concentration of 20 ng/ml for each of the growth factors and 2 μg/ml for heparan sulfate), was added to each well of the plate.
Retinoic acid (Sigma) was added at a concentration of 10^−6 M. 10 μl of one of these regulatory factor-containing solutions was added to each proliferative factor-containing well of the 96 well plates. Control wells, containing only proliferative factors, were also prepared. […]
IL-2, IL-6, IL-8, MIP-1∂, MIP-1β, MIP-2, TNFα and EGF additions were repeated every second day, CNTF which was added each day and retinoic acid, NGF and PDGF were added only once, at the beginning of the experiment. The cells were incubated for a period of 10-12 days. The number of neurospheres in each well was counted and the resulting counts tabulated using Cricket Graph III. Other relevant information regarding sphere size and shape were also noted.

[2] = test system: Striatal cells (E14); test: FGF-2 priming of low-density striatal cells before EGF (Example 8); assay type: cell-based, mouse; details: primed with 20 ng/ml FGF-2 for 11 DIV, then 20 ng/ml EGF 4-5 DIV; 2500 cell/cm^2
Protocol: Striatal cells (E14, 2500 cell/cm^2) were plated in the absence or presence of 20 ng/ml of FGF-2. After 11 DIV, cultures were washed and medium containing 20 ng/ml of EGF was added. After 4-5 DIV, in cultures that were primed with FGF-2, greater than 70% of the wells examined contained clusters of proliferating cells that developed into colonies with the morphologic and antigenic properties of the EGF-generated cells.

[3] = test system: BrdU positive cells in cervical spinal cord; test: In vivo infusion of growth factors into ventricles, BrdU labelling of cervical spinal cord (Example 30); design: species or system mouse; details: 25 μg/mL, osmotic mini-pump, six days
Protocol: Adult male CD1 albino mice (30-35 g) from Charles River were anaesthetized with sodium pentobarbital ([…]) and placed in a stereotaxic apparatus. The dorsal aspect of the skull was exposed with a longitudinal incision. Cannulas were inserted into the fourth ventricle (stereotaxic coordinates A/P −7.0, L ±0.3 D/V −5.8), cerebral aqueduct (A/P −4.8 L ±D/V −2.6), or central canal (DIV −1.5). The cannulae were attached with sterile tubing to subcutaneous positioned ALZET osmotic mini-pumps containing 25 μg/mL EGF (Becton 40001) and/or 25 μg/mL FGF-2 (R&D Systems 233-FB). Pumps containing sterile saline plus 0.1% mouse albumin (Sigma A3134) were used as controls. The incisions were closed with dental cement.
Six days following surgery mice were injected with 0.15 mL BrdU (Sigma B5002); 18 mg/mL in 0.007% NaOH/0.1M PBS) every 2 hours for 8 hours. They were killed 0.5 hours after the last injection with an anaesthetic overdose, and transcardially perfused with 10 mL of ice-cold sterile saline followed by 10 mL of ice-cold Bouin's fixative (5% glacial acetic acid, 9% formaldehyde, 70% picric acid). The cervical spinal cord region was dissected out and post-fixed overnight at 4° C. in Bouin's post-fixative solution (9% formaldehyde, 70% picric acid). […] The number of BrdU positive cells was counted per cervical spinal cord section. […]

bFGF: basic fibroblast growth factor, recombinant human (R & D Systems)
size of neurospheres relative to those generated in the presence of EGF ([1]; bFGF alone): about 20%
neurospheres generated per well ([1]; proliferative factor alone, 20 ng/ml): approximately 70 neurospheres per well
wells containing clusters of proliferating cells [2]: greater than 70%
number of BrdU labelled cells per cervical spinal cord section compared to control [3]: significant increase
